Like-named read-outs stand apart in the source and are kept apart here.

For data set [1] the following is noted: female, CD1, mouse, in vivo.
Protocol: (§1) Mouse Pharmacokinetic Evaluation Experiment
(§2) CD1 female mice were used as test animals to be administered orally/intravenously (with oral dosage of 10 mg/kg or intravenous dosage of 2 mg/kg).
(§3) Experimental scheme: The oral administration group comprised 3 mice per group (Solvent: 10% Hβ-CD-pH7.4), and the intravenous group comprised 3 mice per group. […] The blood concentration in the plasma of mice was determined using the LC/MS/MS method after the oral or intravenous administration, respectively, and the collected data were calculated using the AB Sciex QTRAP 6500 software.
The test system of data set [2] is SW48 (MSI-H) colorectal cancer tumor cells. The data set can be described thus: In vivo efficacy, SW48 xenograft in nude mice. Also on record: species or system BALB/c nude mice. Particulars: QD, oral; for TGI: 21 days; for Tumor Volume D 1: day 1; for Tumor volume D 21: day 21. As to the method: In vivo efficacy experiment in BALB/C nude mice. Details are as follows:
SW48 (MSI-H) colorectal cancer tumor cells were cultured (in an L15 medium with 10% fetal bovine serum), and inoculated into 6-8 week old female BALB/c nude mice (with body weight of about 20 g). All the mice were inoculated subcutaneously. The mice were raised in an SPF-grade experimental environment, and all the mice were free to take commercially certified standard diets. When the tumors grew to an average volume of about 160 mm^3 in mice, the test compound was orally administered daily. […] The tumor volume was measured with a two-dimensional caliper three times a week, and the animals were weighed every day. […] The volume calculation formula is: V=1/2a*b^2, where a represents the long diameter of the tumor and b represents the short diameter of the tumor.

Data set [3] is described as follows: in vivo. As to conditions: female, CD1, mouse.
Protocol: as §1, §2, §3
Data set [4] deals with HT-29 colorectal cancer cells. The data set can be described thus: 2D antiproliferation on MSS HT-29 cells, CTG, 5 days. Type of data set: cell-based. As to conditions: Homo sapiens, 120 h, HT-29 MSS. In outline:
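HT-29 (MSS) colorectal cells in McCoy's 5A with 10% FBS were exposed to a range of compound concentrations for 5 days at 37° C, 5% CO2. Viability was read as CellTiter-Glo luminescence after 30 min, which reflects ATP content.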

Data set [5] addresses T1, WRN enzyme (Homo sapiens, UniProt Q14191).
T1 construct: 10 μL (2×) of WRN enzyme solution was added
The data set can be described thus: WRN helicase hydrolysis (unwinding) of double-stranded DNA, fluorescence assay. Type of data set: biochemical. Particulars: 30 min pre-incubation, 60 min reaction. As to the method: • The molecules of the present disclosure were tested for their activities on the WRN helicase hydrolysis of double-stranded DNA (Table 1).
A working solution to be tested and a buffer were prepared. The compound to be tested was dissolved in DMSO and subjected to 4× dilution (with 10 μM final concentration as the starting concentration). 0.2 μL of the solution of the compound to be tested was added to the 384-well plate and 10 μL (2×) of WRN enzyme solution was added. The solution was incubated in the dark for 30 minutes. Then, 10 μL of a substrate detection solution containing double-stranded DNA was added to initiate the reaction (the DNA has a length of 19 bp, and labeled with TAMRA and BHQ2 at 3′ and 5′-ends, respectively). The solution was incubated at room temperature for 60 minutes. The inhibitory activities (IC50) against WRN enzyme were calculated based on the change of Ex530/Em590 in the blank group (DMSO) and the compound group.

For data set [6], the system named is SW48 colorectal cancer cells. The data set can be described thus: 2D antiproliferation on MSI-H SW48 cells, CTG, 5 days. It counts as cell-based. Particulars: for IC50 / inhibition at 38.15 pM / inhibition at 0.000152588 µM / inhibition at 0.000610352 µM / inhibition at 0.00244141 µM / inhibition at 0.00976562 µM / inhibition at 0.0390625 µM / inhibition at 0.15625 µM / inhibition at 0.625 µM / inhibition at […] / inhibition at 10 µM: Homo sapiens; for IC50: 120 h, SW48 MSI-H, 5 days; for inhibition at 38.15 pM: SW48, 0.038146973 nM; for inhibition at 0.000152588 µM: SW48, 0.152587891 nM; for inhibition at 0.000610352 µM: SW48, 0.610351563 nM; for inhibition at 0.00244141 µM: SW48, 2.44140625 nM; for inhibition at 0.00976562 µM: SW48, 9.765625 nM; for inhibition at 0.0390625 µM: SW48, 39.0625 nM; for inhibition at 0.15625 µM: SW48, 156.25 nM; for inhibition at 0.625 µM: SW48, 625 nM; for inhibition at […]: SW48, 2500 nM; for inhibition at 10 µM: SW48, 10000 nM. In short, it runs like this:
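MSI-H SW48 colorectal cells in RPMI1640 with 10% FBS exposed to graded compound concentrations for 5 days at 37 °C, 5% CO2. Viability read as CellTiter-Glo ATP luminescence after 30 min.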

Data set [7] in a line: Caco-2 membrane permeability assay. Particulars: human. Type of data set: in vitro ADME. As to the method:
Membrane Permeability Evaluation Experiments: Caco-2 Assays
The molecules of the present disclosure were evaluated for their membrane permeability. […] Data would be used for apparent permeability (Papp).
wherein VA is the volume of the receptor pore (unit: mL), Area is the surface area of the membrane (0.143 cm^2 for Transwell-96 well permeable scaffolds), and time is the total transport time (unit: seconds).
On the technique in general: Caco-2 cells form a polarised layer with tight junctions and transporters.

[8] abbreviates: read-out: Average Value/Inhibition Rate.
Where [9] appears, read: read-out: Test 1/Inhibition Rate.
Setting [10] is: read-out: Test 2/Inhibition Rate.
Setting [11] is: Caco-2, apical pH 6.5, basolateral pH 7.4.

T1 sequence (Q14191 whole entry): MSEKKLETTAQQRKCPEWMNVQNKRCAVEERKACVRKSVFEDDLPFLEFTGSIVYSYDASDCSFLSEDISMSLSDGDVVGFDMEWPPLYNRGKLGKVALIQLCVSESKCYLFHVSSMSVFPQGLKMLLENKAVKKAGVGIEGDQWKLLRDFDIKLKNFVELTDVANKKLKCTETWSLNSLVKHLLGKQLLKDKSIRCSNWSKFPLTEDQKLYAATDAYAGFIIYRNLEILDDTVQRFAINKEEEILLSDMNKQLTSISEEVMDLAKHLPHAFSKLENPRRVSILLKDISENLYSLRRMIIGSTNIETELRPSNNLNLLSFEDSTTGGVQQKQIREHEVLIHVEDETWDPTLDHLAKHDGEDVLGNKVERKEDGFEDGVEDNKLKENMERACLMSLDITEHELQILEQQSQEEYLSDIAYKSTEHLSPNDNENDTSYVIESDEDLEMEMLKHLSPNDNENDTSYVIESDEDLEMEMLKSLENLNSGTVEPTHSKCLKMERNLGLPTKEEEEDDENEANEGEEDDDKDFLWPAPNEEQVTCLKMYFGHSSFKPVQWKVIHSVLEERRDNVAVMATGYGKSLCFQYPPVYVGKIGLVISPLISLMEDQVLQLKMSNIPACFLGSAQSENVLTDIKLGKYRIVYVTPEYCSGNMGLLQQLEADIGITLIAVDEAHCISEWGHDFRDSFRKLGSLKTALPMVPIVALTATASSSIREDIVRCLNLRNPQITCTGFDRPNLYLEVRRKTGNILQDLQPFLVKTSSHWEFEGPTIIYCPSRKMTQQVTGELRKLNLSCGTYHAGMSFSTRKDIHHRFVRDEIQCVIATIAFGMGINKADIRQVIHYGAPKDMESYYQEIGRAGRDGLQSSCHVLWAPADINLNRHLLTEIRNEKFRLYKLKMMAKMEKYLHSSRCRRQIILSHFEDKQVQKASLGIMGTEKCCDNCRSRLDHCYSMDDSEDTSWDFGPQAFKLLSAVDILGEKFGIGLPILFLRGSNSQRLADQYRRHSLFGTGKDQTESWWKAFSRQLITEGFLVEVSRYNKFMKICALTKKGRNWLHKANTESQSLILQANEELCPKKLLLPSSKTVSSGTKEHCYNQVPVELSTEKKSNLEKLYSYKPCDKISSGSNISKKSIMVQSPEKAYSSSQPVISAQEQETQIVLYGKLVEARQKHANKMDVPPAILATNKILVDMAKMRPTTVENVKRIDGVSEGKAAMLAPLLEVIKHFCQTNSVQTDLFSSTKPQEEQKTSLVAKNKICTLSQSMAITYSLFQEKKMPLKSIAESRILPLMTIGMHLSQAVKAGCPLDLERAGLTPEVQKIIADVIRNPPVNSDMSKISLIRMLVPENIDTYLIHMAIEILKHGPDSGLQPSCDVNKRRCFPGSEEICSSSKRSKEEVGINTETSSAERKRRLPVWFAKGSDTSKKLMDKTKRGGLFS

What is called AUC(0-t) is exposure summed from dosing to a finite time, without extrapolation to infinity. Lower therefore signals low exposure. As a reminder, the clearance is a measure of how efficiently the substance is removed, as volume per time. A low value points to a low capacity for elimination. By half-life is commonly meant the time in which the quantity being followed falls by half. A low value points to rapid decline. As a reminder, the Cmax is the highest concentration seen after dosing. As a reminder, the Tmax is the time at which the peak concentration occurs. In turn, `CCc1c(N2CCN(C(=O)c3ncccc3O)CC2)c(=O)n2nc(-c3cccnc3)nc2n1CC(=O)Nc1ccc(C(F)(F)F)cc1C` [A1, reference compound] returned a F in data set [1] of 14%. For the same compound, in data set [2] (20 mg/kg), the TGI turned out to be 16%, the “Tumor Volume D 1” value was found to be 162 mm^3 and the “Tumor volume D 21” value worked out at 1672 mm^3. Besides, in data set [2] (50 mg/kg), the TGI amounted to 50%, the “Tumor Volume D 1” value is 160 mm^3 and the “Tumor volume D 21” value was determined as 1065 mm^3. In data set [3] (iv, 2 mg/kg), this compound showed an AUC(0-t) of 1190 ng·h/mL, a C0 of 2520 ng/mL, a clearance of 28.1 mL/min/kg and a half-life of 1.3 h. In addition, in data set [3] (po, 10 mg/kg), the AUC(0-t) is 801 ng·h/mL, the highest level (Cmax) was 584 ng/mL, the Tmax stood at 0.5 h and the half-life is 1.4 h.
As a reminder, the IC50 is the concentration needed to halve the response being measured. A high value points to lower potency. Take `CCc1c(N2CCN(C(=O)c3ncccc3O)CC2)c(=O)n2nc(-c3ccc(CO)s3)nc2n1CC(=O)Nc1ccc(C(F)(F)F)cc1Cl` [P9]: the IC50 in data set [4] is greater than 10000 nM. The same compound yielded a F in data set [1] of 25%. In data set [3] (iv, 2 mg/kg), this compound showed an AUC(0-t) of 1230 ng·h/mL, a C0 of 2840 ng/mL, a clearance of 27 mL/min/kg and a half-life of 0.9 h. Moreover, in data set [3] (po, 10 mg/kg), the AUC(0-t) came to 1520 ng·h/mL, the highest level (Cmax) was 695 ng/mL, the Tmax stood at 1 h and the half-life was 1.4 h. The same compound had an IC50 in data set [5] of 1.2 nM. In data set [6], this compound yielded an IC50 of 54 nM.
In data set [4], `CCc1c(N2CCN(C(=O)c3ncnc(C)c3O)CC2)c(=O)n2nc(-c3cc4c(s3)COC4)nc2n1CC(=O)Nc1ccc(C(F)(F)F)cc1C` [P29] had an IC50 greater than 10000 nM. Also, in data set [2] (120 mg/kg), the TGI is recorded as 105%, the “Tumor Volume D 1” value turned out to be 174 mm^3 and the “Tumor volume D 21” value came out at 36 mm^3. In data set [5], this compound gave an IC50 of 2.1 nM. Moreover, in data set [6] (39 nM), the “inhibitory activity on SW48 cells” value is reported as “high inhibitory activity”. Further, in data set [6], the IC50 is 32 nM. Besides, in data set [6] (setting [8]), the inhibition at 38.15 pM amounted to 18.3%, the inhibition at 0.000152588 µM was determined as 25.6%, the inhibition at 0.000610352 µM turned out to be 14.7% and the inhibition at 0.00244141 µM was determined as 19.8%. In addition, in data set [6] (setting [8]), the inhibition at 0.00976562 µM is 21.2%, the inhibition at 0.0390625 µM worked out at 70.9%, the inhibition at 0.15625 µM was determined as 97.3% and the inhibition at 0.625 µM was found to be 99.4%. In addition, in data set [6] (setting [8]), the inhibition at […] came out at 99% and the inhibition at 10 µM is 99.8%. Besides, in data set [6] (setting [9]), the inhibition at 38.15 pM came to 18%, the inhibition at 0.000152588 µM was 26.1%, the inhibition at 0.000610352 µM amounted to 19.4% and the inhibition at 0.00244141 µM came to 12.8%. Also, in data set [6] (setting [9]), the inhibition at 0.00976562 µM was 17.4%, the inhibition at 0.0390625 µM was 70.9%, the inhibition at 0.15625 µM was 96.5% and the inhibition at 0.625 µM was found to be 99.1%. Further, in data set [6] (setting [9]), the inhibition at […] worked out at 99.1% and the inhibition at 10 µM is 100%. Further, in data set [6] (setting [10]), the inhibition at 38.15 pM is 18.6%, the inhibition at 0.000152588 µM was 25.1%, the inhibition at 0.000610352 µM came to 9.96% and the inhibition at 0.00244141 µM stood at 26.8%. Besides, in data set [6] (setting [10]), the inhibition at 0.00976562 µM turned out to be 25.1%, the inhibition at 0.0390625 µM is 70.9%, the inhibition at 0.15625 µM is 98.1% and the inhibition at 0.625 µM amounted to 99.6%. In data set [6] (setting [10]), the inhibition at […] is 99% and the inhibition at 10 µM was 99.6%.
In data set [4], `CCc1c(N2CCN(C(=O)c3ncnc(C)c3O)CC2)c(=O)n2nc(-c3cc4c(s3)COC4)nc2n1CC(=O)Nc1ccc(C(F)(F)F)c2ccoc12` [P57] showed a 50% inhibitory concentration (IC50) greater than 10000 nM. This compound showed a F in data set [1] of 57%. In data set [3] (iv, 2 mg/kg), this compound gave an AUC(0-t) of 3150 ng·h/mL, a C0 of 2920 ng/mL, a clearance of 10.5 mL/min/kg and a half-life of 1.2 h. In addition, in data set [3] (po, 10 mg/kg), the AUC(0-t) came to 8930 ng·h/mL, the Cmax was 4260 ng/mL, the Tmax worked out at 0.5 h and the half-life is 1.4 h. The compound also gave an IC50 in data set [5] of 1.3 nM. For the same compound, the midpoint of inhibition in data set [6], the IC50, lay at 34 nM.
For the compound `CCc1c(N2CCN(C(=O)c3ncnc(C)c3O)CC2)c(=O)n2nc(-c3cc4c(s3)COC4)nc2n1CC(=O)Nc1ccc(Br)c2ccoc12` [P59], in data set [4], the IC50 was greater than 10000 nM. This compound also gave a F in data set [1] of 41%. In data set [3] (iv, 2 mg/kg), this compound had an area under the curve AUC(0-t) of 2970 ng·h/mL, a C0 of 5260 ng/mL, a clearance of 11.2 mL/min/kg and a half-life of 0.9 h. In data set [3] (po, 10 mg/kg), the AUC(0-t) stood at 6070 ng·h/mL, the peak level (Cmax) was 2850 ng/mL, the Tmax worked out at 0.25 h and the half-life is 1.3 h. Inhibition in data set [5] was half-maximal at 1.5 nM (IC50). Moreover, half-maximal inhibition in data set [6] (IC50) was put at 39 nM.
Broadly, the efflux ratio is a quotient of directional permeabilities that is used to spot active efflux. What is called Papp A→B is the apparent permeability from the apical to the basolateral side of a cell layer. A low value points to slow passage. As a reminder, the Papp B→A is the apparent permeability from the basolateral to the apical side of a cell layer. `CCc1c(N2CCN(C(=O)c3ncnc(C)c3O)CC2)c(=O)n2nc(-c3cc4c(s3)COC4)nc2n1CC(=O)Nc1ccc(C(F)(F)F)c(C)c1C` [P62]: in data set [7] (Caco-2), the efflux ratio stood at 11.6. In data set [7] (setting [11]), the apparent permeability from apical to basolateral (Papp A→B) was determined as 1.54 ×10⁻⁶ cm/s and the Papp B→A was found to be 17.9 ×10⁻⁶ cm/s. The IC50 in data set [6] was determined as 37 nM.
